Laboratory results reported in patent US20160023126A1, “SPRAY DRYING TECHNIQUES” (President and Fellows of Harvard College, priority 2010, published 2016).

Assays:
Assay type in all cases: physicochemical
[1] = SEM analysis of particle size and morphology of spray-dried drug; conditions: microfluidic spray dryer; danazol in IPA and pure IPA (antisolvent replaced by solvent)
Experimental: To evaluate the effect of microfluidic processing on particle size and morphology of the hydrophobic drug, no stabilizer or surfactant was added to influence the particle growth. […] Morphology and particle size of the processed drug was examined by scanning electron microscopy (“SEM”) analysis. […] The scale bar denotes 300 nm.
(§1) Processed danazol was collected at distances between 5 cm and 30 cm from the spray nozzle. For SEM analysis, the spray was collected on glass slides and coated with Pd/Pt. An Ultra55 Field Emission SEM (Zeiss) coupled with an EDX detector was used. The size distribution of the nanoparticles was determined by image analysis of SEM photographs using ImageJ. For XRPD analysis, samples were collected in an aluminum box over which the spray dryer was mounted. XPRD analysis was performed using a Scintag XDS2000 powder diffractometer (Scintag, Cupertino, California, USA) with Cu Ka (K-alpha) radiation at 40 kV and 30 mA. The XRD patterns were taken at room temperature in the range of 10°≦2θ≦50° (2 theta) with a scan rate of 1° min^−1 and a step size of 0.02°.

[2] = X-ray powder diffraction analysis (XRPD) of crystallinity
Source text: X-ray powder diffraction analysis (“XRPD”) was employed to determine the effect of spatial sampling on the crystallinity of danazol. Characteristic peaks at 20 (2 theta) of 15.8, 17.1 and 19.0 in the XRD pattern of unprocessed danazol were used as reference. In processed danazol, the intensity of the characteristic peaks decreased as the collection distance of the spray is increased. These figures show nanoparticles, approximately 20 nm to 60 nm in diameter, assembled in a dense network.
as §1

[3] = Energy dispersive X-ray (EDX) analysis of chemical composition after spray drying; conditions: unprocessed vs processed danazol, either solvent system (IPA/water, IPA/IPA)
Experimental: Scale bar denotes 300 nm.
as §1

SMILES: C#C[C@]1(O)CC[C@H]2[C@@H]3CCC4=Cc5oncc5C[C@]4(C)[C@H]3CC[C@@]21C [danazol]
- size and morphology of nanoparticles compared with IPA/water system [1]: identical size and morphology
- crystallinity (XRPD) ([2]; conventional Mini Spray Dryer B 191, solution of danazol in IPA): retained
- crystallinity (intensity of characteristic XRPD peaks) ([2]; microfluidic spray dryer, collection distance of the spray increased (5 cm to 30 cm)): initial crystallinity of the drug was not recovered
- crystallinity (XRPD pattern) ([2]; microfluidic spray dryer, danazol in IPA with water, collected 5 cm from nozzle): crystalline aggregates
- chemical composition of the drug during the spray drying process [3]: remained unchanged
